Assay results reported in US20230086703A1, “N-(4-(5-chloropyridin-3-yl)phenyl)-2-(2-(cyclopropanesulfonamido)pyrimidin-4-yl) butanamide derivatives and related compounds as human CTPS1 inhibitors for the treatment of proliferative diseases” (Step Pharma S.A.S., priority 2019, published 2023).
Where two headings read alike, the source gives them in different places.

Biological target: T1, human CTPS1 (Homo sapiens, UniProt P17812)
T1 construct: FLAG (with GG linker); His8 (with GG linker); purchased Proteros biostructures GmbH
T1 sequence (P17812 1-591): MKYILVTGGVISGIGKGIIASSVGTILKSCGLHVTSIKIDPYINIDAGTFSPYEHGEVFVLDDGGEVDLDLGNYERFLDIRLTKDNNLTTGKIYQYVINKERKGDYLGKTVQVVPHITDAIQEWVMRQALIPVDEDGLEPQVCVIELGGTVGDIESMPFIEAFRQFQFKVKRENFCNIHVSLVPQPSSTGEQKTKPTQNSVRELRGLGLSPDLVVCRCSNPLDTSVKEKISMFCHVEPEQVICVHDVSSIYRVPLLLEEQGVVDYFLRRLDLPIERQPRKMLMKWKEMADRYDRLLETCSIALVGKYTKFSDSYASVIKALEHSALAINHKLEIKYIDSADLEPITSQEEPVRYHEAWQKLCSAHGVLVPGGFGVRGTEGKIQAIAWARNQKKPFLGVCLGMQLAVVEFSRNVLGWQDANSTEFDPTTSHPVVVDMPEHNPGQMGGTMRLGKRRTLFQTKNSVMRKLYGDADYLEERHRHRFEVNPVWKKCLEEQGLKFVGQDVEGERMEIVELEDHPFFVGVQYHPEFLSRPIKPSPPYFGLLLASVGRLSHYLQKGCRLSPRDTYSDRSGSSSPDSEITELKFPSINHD
Assay: Human CTPS1 enzyme inhibition, ADP-Glo Max assay
Type: biochemical
Description: The enzyme inhibitory activities of compounds invented against the target of interest were determined using the ADP-Glo™ Max assay (Promega, UK). Assays for human CTPS1 were performed in 1× assay buffer containing 50 mM Tris, 10 mM MgCl2, 0.01% Tween-20, pH to 8.0 accordingly. Finally, immediately before use, L-cysteine was added to the 1× assay buffer to a final concentration of 2 mM. All reagents are from Sigma-Aldrich unless specified otherwise.
3× human CTPS1 protein was prepared in 1× assay buffer to the final working protein concentration required for the reaction. A 2 uL volume per well of 3× human CTPS1 protein was mixed with 2 uL per well of 3× test compound (compound prepared in 1× assay buffer to an appropriate final 3× compound concentration respective to the concentration response curve designed for the compounds under test) for 10 minutes at 25° C. […] ADP-Glo™ Max reagent was added for 60 minutes (6 μL per well) and subsequently ADP-Glo™ Max development reagent was added for 60 minutes (12 uL per well) prior to signal detection in a microplate reader (EnVision® Multilabel Reader, Perkin Elmer). Following each reagent addition over the course of the assay, assay plates were pulse centrifuged for 30 seconds at 500 rpm.
In all cases, the enzyme converts ATP to ADP and the ADP-Glo™ Max reagent subsequently depletes any remaining endogenous ATP in the reaction system. The ADP-Glo™ Max detection reagent converts the ADP that has been enzymatically produced back into ATP and using ATP as a substrate together with luciferin for the enzyme luciferase, light is generated which produces a detectable luminescence. […] The percentage inhibition produced by each concentration of compound was calculated using the equation shown below: […]

[1] = ADP-Glo Max assay, Table 10, read-out: Human CTPS1 Enzyme Inhibition, IC50 grouped by potency range (CTPS1)

Compound | IC50 [1] [nM] | IC50 (Table 12, ADP-Glo Max assay, read-out: CTPS1 (Human CTPS1 Enzyme Inhibition data grouped by potency range)) [nM]
O=C(Cc1csc(NS(=O)(=O)C2CC2)n1)Nc1ccc(-c2cccnc2)cc1F [T216, 2-(2-(cyclopropanesulfonamido)thiazol-4-yl)-N-(2-fluoro-4-(pyridin-3-yl)phenyl)acetamide] | 100 to 1000 | –
CCC(CC)(C(=O)Nc1ccc(-c2cncc(F)c2)cc1)c1csc(NS(=O)(=O)C2CC2)n1 [T156, 2-(2-(cyclopropanesulfonamido)thiazol-4-yl)-2-ethyl-N-(4-(5-fluoropyridin-3-yl)phenyl)butanamide] | < 100 | –
CC(C)(C(=O)Nc1ccc(-c2cccc(C(F)(F)F)n2)cc1)c1csc(NS(=O)(=O)C2CC2)n1 [T270, 2-(2-(cyclopropanesulfonamido)thiazol-4-yl)-2-methyl-N-(4-(6-(trifluoromethyl)pyridin-2-yl)phenyl)propanamide] | 100 to 1000 | –
Cc1cncc(-c2ccc(NC(=O)Cc3csc(NS(=O)(=O)C4CC4)n3)cc2)c1 [T99, 2-(2-(cyclopropanesulfonamido)thiazol-4-yl)-N-(4-(5-methylpyridin-3-yl)phenyl)acetamide] | < 100 | –
CC(C)(C(=O)Nc1ccc(-c2cncc(C#N)n2)cn1)c1csc(NS(=O)(=O)C2CC2)n1 [T263, N-(5-(6-cyanopyrazin-2-yl)pyridin-2-yl)-2-(2-(cyclopropanesulfonamido)thiazol-4-yl)-2-methylpropanamide] | 1000 to 10000 | –
CCOc1cncc(-c2ccc(NC(=O)C3(c4ccnc(NS(=O)(=O)C5CC5)n4)CCC(N)CC3)nc2)n1 (centres unmarked) [P304] | – | < 100
Cc1ccncc1-c1ccc(NC(=O)Cc2csc(NS(=O)(=O)C3CC3)n2)cc1 [T98, 2-(2-(cyclopropanesulfonamido)thiazol-4-yl)-N-(4-(4-methylpyridin-3-yl)phenyl)acetamide] | 100 to 1000 | –
COc1ncccc1-c1ccc(NC(=O)C(C)(C)c2csc(NS(=O)(=O)C3CC3)n2)cc1 [T44, 2-(2-(cyclopropanesulfonamido)thiazol-4-yl)-N-(4-(2-methoxypyridin-3-yl)phenyl)-2-methylpropanamide] | 100 to 1000 | –
CC(C)(C(=O)Nc1ccc(-c2cccnc2)c(F)c1)c1csc(NS(=O)(=O)C2CC2)n1 [T151, 2-(2-(cyclopropanesulfonamido)thiazol-4-yl)-N-(3-fluoro-4-(pyridin-3-yl)phenyl)-2-methylpropanamide] | 100 to 1000 | –
COc1cc(-c2cccnc2)ccc1NC(=O)Cc1csc(NS(=O)(=O)C2CC2)n1 [T215, 2-(2-(cyclopropanesulfonamido)thiazol-4-yl)-N-(2-methoxy-4-(pyridin-3-yl)phenyl)acetamide] | < 100 | –
CCOc1cncc(-c2ccc(NC(=O)C(CC)(CC)c3csc(NS(=O)(=O)C4CC4)n3)nc2)c1 [T145, 2-(2-(cyclopropanesulfonamido)thiazol-4-yl)-N-(5′-ethoxy-[3,3′-bipyridin]-6-yl)-2-ethylbutanamide] | < 100 | –
CC(C)(C(=O)Nc1ccc(-c2cncnc2)cn1)c1csc(NS(=O)(=O)C2CC2)n1 [T264, 2-(2-(cyclopropanesulfonamido)thiazol-4-yl)-2-methyl-N-(5-(pyrimidin-5-yl)pyridin-2-yl)propanamide] | 100 to 1000 | –
COc1cc(NC(=O)C(C)(C)c2csc(NS(=O)(=O)C3CC3)n2)ccc1-c1cccnc1 [T150, 2-(2-(cyclopropanesulfonamido)thiazol-4-yl)-N-(3-methoxy-4-(pyridin-3-yl)phenyl)-2-methylpropanamide] | 100 to 1000 | –
CC(C)(C(=O)Nc1ccc(-c2cncc(OC(F)F)c2)cc1)c1csc(NS(=O)(=O)C2CC2)n1 [T118, 2-(2-(cyclopropanesulfonamido)thiazol-4-yl)-N-(4-(5-(difluoromethoxy)pyridin-3-yl)phenyl)-2-methylpropanamide] | < 100 | –
COc1ccnc(-c2ccc(NC(=O)C(C)(C)c3csc(NS(=O)(=O)C4CC4)n3)cc2)c1 [T271, 2-(2-(cyclopropanesulfonamido)thiazol-4-yl)-N-(4-(4-methoxypyridin-2-yl)phenyl)-2-methylpropanamide] | 1000 to 10000 | –
CC(C)Oc1cncc(-c2ccc(NC(=O)C(C)(C)c3csc(NS(=O)(=O)C4CC4)n3)cc2)n1 [T272, 2-(2-(cyclopropanesulfonamido)thiazol-4-yl)-N-(4-(6-isopropoxypyrazin-2-yl)phenyl)-2-methylpropanamide] | < 100 | –
CC(C)(C(=O)Nc1ccc(-c2cnccn2)cc1)c1csc(NS(=O)(=O)C2CC2)n1 [T32, 2-(2-(cyclopropanesulfonamido)thiazol-4-yl)-2-methyl-N-(4-(pyrazin-2-yl)phenyl)propanamide] | < 100 | –
COc1ccc(-c2ccc(NC(=O)Cc3csc(NS(=O)(=O)C4CC4)n3)cc2)cn1 [T260, 2-(2-(cyclopropanesulfonamido)thiazol-4-yl)-N-(4-(6-methoxypyridin-3-yl)phenyl)acetamide] | 1000 to 10000 | –
CC(C)(C(=O)Nc1ccc(-c2cnccn2)cn1)c1csc(NS(=O)(=O)C2CC2)n1 [T140, 2-(2-(cyclopropanesulfonamido)thiazol-4-yl)-2-methyl-N-(5-(pyrazin-2-yl)pyridin-2-yl)propanamide] | 100 to 1000 | –

More lines, now with the values ahead:

IC50 [1] [nM] | IC50 (Table 12, ADP-Glo Max assay, read-out: CTPS1 (Human CTPS1 Enzyme Inhibition data grouped by potency range)) [nM] | Compound
100 to 1000 | – | CC(C)(C(=O)Nc1ccc(-c2cncc(C(F)(F)F)n2)cc1F)c1csc(NS(=O)(=O)CC2CC2)n1 [T430, 2-(2-((cyclopropylmethyl)sulfonamido)thiazol-4-yl)-N-(2-fluoro-4-(6-(trifluoromethyl)pyrazin-2-yl)phenyl)-2-methylpropanamide]
100 to 1000 | – | CC(C)(C(=O)Nc1ccc(-c2cncc(C(F)(F)F)n2)cc1)c1csc(NS(=O)(=O)C2(C)CC2)n1 [T302, 2-methyl-2-(2-((1-methylcyclopropane)-1-sulfonamido)thiazol-4-yl)-N-(4-(6-(trifluoromethyl)pyrazin-2-yl)phenyl)propanamide]
100 to 1000 | – | CCOc1cncc(-c2ccc(NC(=O)C(F)(F)c3csc(NS(=O)(=O)C4CC4)n3)nc2)n1 [T422, 2-(2-(cyclopropanesulfonamido)thiazol-4-yl)-N-(5-(6-ethoxypyrazin-2-yl)pyridin-2-yl)-2,2-difluoroacetamide]
100 to 1000 | – | CCOc1cncc(-c2ccc(NC(=O)C(C)(C)c3csc(NS(=O)(=O)CCOC)n3)c(F)c2)n1 [T432, N-(4-(6-ethoxypyrazin-2-yl)-2-fluorophenyl)-2-(2-((2-methoxyethyl)sulfonamido)thiazol-4-yl)-2-methylpropanamide]
< 100 | – | CCOc1cncc(-c2ccc(NC(=O)Cc3csc(NS(=O)(=O)C4CC4)n3)c(F)c2)n1 [T423, 2-(2-(cyclopropanesulfonamido)thiazol-4-yl)-N-(4-(6-ethoxypyrazin-2-yl)-2-fluorophenyl)acetamide]
100 to 1000 | – | CC(C)(C(=O)Nc1ncc(-c2cncc(F)c2)cn1)c1csc(NS(=O)(=O)C2CC2)n1 [T293, 2-(2-(cyclopropanesulfonamido)thiazol-4-yl)-N-(5-(5-fluoropyridin-3-yl)pyrimidin-2-yl)-2-methylpropanamide]
1000 to 10000 | – | CC(C)S(=O)(=O)Nc1nc(C(C)(C)C(=O)Nc2ccc(-c3cccnc3)cc2)cs1 [T297, 2-methyl-2-(2-((1-methylethyl)sulfonamido)thiazol-4-yl)-N-(4-(pyridin-3-yl)phenyl)propanamide]
100 to 1000 | – | CC(C)(C(=O)Nc1ccc(-c2cccnc2)cc1)c1csc(NS(=O)(=O)C2CCC2)n1 [T306, 2-(2-(cyclobutanesulfonamido)thiazol-4-yl)-2-methyl-N-(4-(pyridin-3-yl)phenyl)propanamide]
100 to 1000 | – | CCOc1cc(NC(=O)C(C)(C)c2csc(NS(=O)(=O)C3CC3)n2)ccc1-c1cncc(C#N)c1 [T289, N-(4-(5-cyanopyridin-3-yl)-3-ethoxyphenyl)-2-(2-(cyclopropanesulfonamido)thiazol-4-yl)-2-methylpropanamide]
1000 to 10000 | – | CN(C)CCOc1cncc(-c2ccc(NC(=O)C(C)(C)c3csc(NS(=O)(=O)C4CC4)n3)cc2)n1 [T279, 2-(2-(cyclopropanesulfonamido)thiazol-4-yl)-N-(4-(6-(2-(dimethylamino)ethoxy)pyrazin-2-yl)phenyl)-2-methylpropanamide]
